Reference: patent publication US20250163066A1, “PROTACs of MALT1” (TEGID THERAPEUTICS, INC., priority 2022, published 2025)

What was measured:
MALT1 = MALT1 (Homo sapiens (Human), UniProt Q9UDY8); test: MALT1 enzymatic activity inhibition (fluorescence, Ac-LRSR-AMC substrate); assay type: biochemical; conditions: recombinant MALT1 1.5 ng/μl, Ac-LRSR-AMC 1 μM
Summary of the method: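 Recombinant human MALT1 (1.5 ng/μl final) preincubated 10 min at rt with compounds in 50 mM HEPES pH 7.2-7.4, 100 mM NaCl, 900 mM sodium citrate, 10 mM DTT; 1 μM Ac-LRSR-AMC then added. AMC fluorescence read at start and after 30 min 37 °C plus 30 min rt; difference gives signal, % inhibition fitted to IC50.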

[1] = system: IL-2 MALT1-dependent release in Jurkat cells; test: cells; assay type: cell-based; conditions: Homo sapiens; Jurkat cells stimulated with antiCD3/antiCD28 for 24 h; IL-2 ELISA; read-out: EC50, IL-2 MALT1-dependent release inhibition
Description: Jurkat cells (ATCC, USA) (100,000 cells/well in a 96 well flat-bottom plate (Greiner, #655061) were cultured in RPMI 1640 supplemented with 10% FBS at 37° C., 5% CO2 in a humidified cell culture incubator for 0.5-1 h. Then 10 μl/well 15× compound (or DMSO) was added in duplicates. Cells were incubated with compound in a humidified cell culture incubator for 0.5-1 h. After the incubation, 10 μl/well of 15× human antiCD3 HIT3a antibody (BioLegend) together with 10 μl/well of 15× human antiCD28 antibody (Invitrogen) were added to stimulate Jurkat cells for 24 h. After 24 h of stimulation, supernatants were collected and IL-2 levels in supernatants were assessed using IL-2 ELISA kit (Vector-Best, Russia).

MALT1, sequence (Q9UDY8 whole entry): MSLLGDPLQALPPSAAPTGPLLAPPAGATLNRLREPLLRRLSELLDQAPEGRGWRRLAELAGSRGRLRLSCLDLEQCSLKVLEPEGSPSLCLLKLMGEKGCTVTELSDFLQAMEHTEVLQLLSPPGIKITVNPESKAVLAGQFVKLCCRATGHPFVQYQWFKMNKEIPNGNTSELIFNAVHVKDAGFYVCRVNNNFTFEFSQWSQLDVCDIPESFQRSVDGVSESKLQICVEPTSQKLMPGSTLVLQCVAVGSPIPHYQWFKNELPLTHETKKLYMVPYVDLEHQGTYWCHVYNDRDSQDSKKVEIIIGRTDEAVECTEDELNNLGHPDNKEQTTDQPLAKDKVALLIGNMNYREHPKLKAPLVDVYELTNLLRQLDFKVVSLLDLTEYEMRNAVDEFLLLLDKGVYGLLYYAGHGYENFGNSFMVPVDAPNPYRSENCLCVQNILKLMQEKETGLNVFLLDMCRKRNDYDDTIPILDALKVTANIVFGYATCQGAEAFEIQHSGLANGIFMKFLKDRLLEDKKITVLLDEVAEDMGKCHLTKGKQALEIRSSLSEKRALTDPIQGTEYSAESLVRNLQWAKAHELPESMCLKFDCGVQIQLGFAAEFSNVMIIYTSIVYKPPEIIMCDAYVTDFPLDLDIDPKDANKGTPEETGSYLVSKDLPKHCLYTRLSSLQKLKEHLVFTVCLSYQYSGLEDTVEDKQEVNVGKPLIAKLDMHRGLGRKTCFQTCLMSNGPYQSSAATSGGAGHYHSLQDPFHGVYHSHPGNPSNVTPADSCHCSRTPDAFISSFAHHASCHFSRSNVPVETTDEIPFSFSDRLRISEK

Structure (SMILES) | EC50 (MALT1) [µM] | EC50 [1] [nM]
O=C1CCC(N2Cc3cc(N4CCN(C(=O)CCCCc5nc(-c6ncc(NC(=O)Nc7cnc8ccnn8c7C7CCCC7)cc6Cl)no5)CC4)ccc3C2=O)C(=O)N1 (stereo not shown) [Compound 76, 1-[5-chloro-6-[5-[5-[4-[2-(2,6-dioxo-3-piperidyl)-1-oxo-isoindolin-5-yl]piperazin-1-yl]-5-oxo-pentyl]-1,2,4-oxadiazol-3-yl]-3-pyridyl]-3-(7-cyclopentylpyrazolo[1,5-a]pyrimidin-6-yl)urea] | ≤ 0.2 | 500 to 1000
O=C1CCC(N2Cc3cc(N4CCN(CCCCCCc5nc(-c6ncc(NC(=O)Nc7cnc8ccnn8c7C7CCCC7)cc6Cl)no5)CC4)ccc3C2=O)C(=O)N1 (stereo not shown) [Compound 78, 1-[5-chloro-6-[5-[6-[4-[2-(2,6-dioxo-3-piperidyl)-1-oxo-isoindolin-5-yl]piperazin-1-yl]hexyl]-1,2,4-oxadiazol-3-yl]-3-pyridyl]-3-(7-cyclopentylpyrazolo[1,5-a]pyrimidin-6-yl)urea] | ≤ 0.2 | < 500
O=C1CCC(N2Cc3cc(N4CCN(CCCCCc5nc(-c6ncc(NC(=O)Nc7cnc8ccnn8c7C7CCCC7)cc6Cl)no5)CC4)ccc3C2=O)C(=O)N1 (stereo not shown) [Compound 79, 1-[5-chloro-6-[5-[5-[4-[2-(2,6-dioxo-3-piperidyl)-1-oxo-isoindolin-5-yl]piperazin-1-yl]pentyl]-1,2,4-oxadiazol-3-yl]-3-pyridyl]-3-(7-cyclopentylpyrazolo[1,5-a]pyrimidin-6-yl)urea] | ≤ 0.2 | < 500
Cc1cc2ncc(NC(=O)Nc3cnc(-c4noc(CCCCCC(=O)N5CCN(c6ccc7c(c6)CN(C6CCC(=O)NC6=O)C7=O)CC5)n4)c(C)c3)c(C3CCCC3)n2n1 (stereo not shown) [Compound 82, 1-(7-cyclopentyl-2-methyl-pyrazolo[1,5-a]pyrimidin-6-yl)-3-[6-[5-[6-[4-[2-(2,6-dioxo-3-piperidyl)-1-oxo-isoindolin-5-yl]piperazin-1-yl]-6-oxo-hexyl]-1,2,4-oxadiazol-3-yl]-5-methyl-3-pyridyl]urea] | ≤ 0.2 | 1000 to 5000
Cc1cc2ncc(NC(=O)Nc3cnc(-c4noc(CCCCC(=O)N5CCN(c6ccc7c(c6)CN(C6CCC(=O)NC6=O)C7=O)CC5)n4)c(C)c3)c(C3CCCO3)n2n1 (stereo not shown) [Compound 84, 1-[6-[5-[5-[4-[2-(2,6-dioxo-3-piperidyl)-1-oxo-isoindolin-5-yl]piperazin-1-yl]-5-oxo-pentyl]-1,2,4-oxadiazol-3-yl]-5-methyl-3-pyridyl]-3-(2-methyl-7-tetrahydrofuran-2-yl-pyrazolo[1,5-a]pyrimidin-6-yl)urea] | ≤ 0.2 | 1000 to 5000
Cc1cc(NC(=O)Nc2cnc3ccnn3c2C(C)C)cnc1-c1noc(CCCCC(=O)N2CCN(c3ccc4c(c3)CN(C3CCC(=O)NC3=O)C4=O)CC2)n1 (stereo not shown) [Compound 86, 1-[6-[5-[5-[4-[2-(2,6-dioxo-3-piperidyl)-1-oxo-isoindolin-5-yl]piperazin-1-yl]-5-oxo-pentyl]-1,2,4-oxadiazol-3-yl]-5-methyl-3-pyridyl]-3-(7-isopropylpyrazolo[1,5-a]pyrimidin-6-yl)urea] | ≤ 0.2 | 1000 to 5000
Cc1cc(NC(=O)Nc2cnc3ccnn3c2C(C)C)cnc1-c1noc(CCCCCN2CCN(c3ccc4c(c3)CN(C3CCC(=O)NC3=O)C4=O)CC2)n1 (stereo not shown) [Compound 87, 1-[6-[5-[5-[4-[2-(2,6-dioxo-3-piperidyl)-1-oxo-isoindolin-5-yl]piperazin-1-yl]pentyl]-1,2,4-oxadiazol-3-yl]-5-methyl-3-pyridyl]-3-(7-isopropylpyrazolo[1,5-a]pyrimidin-6-yl)urea] | ≤ 0.2 | < 500
Cc1cc(NC(=O)Nc2cnc3ccnn3c2C2CCCC2)cnc1-c1noc(CCCCCN2CCN(c3ccc4c(c3)CN(C3CCC(=O)N(COC(=O)C(C)(C)C)C3=O)C4=O)CC2)n1 (stereo not shown) [Compound 88, [3-[5-[4-[5-[3-[5-[(7-cyclopentylpyrazolo[1,5-a]pyrimidin-6-yl)carbamoylamino]-3-methyl-2-pyridyl]-1,2,4-oxadiazol-5-yl]pentyl]piperazin-1-yl]-1-oxo-isoindolin-2-yl]-2,6-dioxo-1-piperidyl]methyl 2,2-dimethylpropanoate] | ≤ 0.2 | 1000 to 5000
Cc1cc(NC(=O)Nc2cnc3ccnn3c2C(C)C)cnc1-c1noc(CCCC(=O)N2CCN(c3ccc4c(c3)CN(C3CCC(=O)NC3=O)C4=O)CC2)n1 (stereo not shown) [Compound 89, 1-[6-[5-[4-[4-[2-(2,6-dioxo-3-piperidyl)-1-oxo-isoindolin-5-yl]piperazin-1-yl]-4-oxo-butyl]-1,2,4-oxadiazol-3-yl]-5-methyl-3-pyridyl]-3-(7-isopropylpyrazolo[1,5-a]pyrimidin-6-yl)urea] | ≤ 0.2 | < 500
Cc1cc(NC(=O)Nc2cnc3ccnn3c2C(C)C)cnc1-c1noc(CCCCCC(=O)N2CCN(c3ccc4c(c3)CN(C3CCC(=O)NC3=O)C4=O)CC2)n1 (stereo not shown) [Compound 91, 1-[6-[5-[6-[4-[2-(2,6-dioxo-3-piperidyl)-1-oxo-isoindolin-5-yl]piperazin-1-yl]-6-oxo-hexyl]-1,2,4-oxadiazol-3-yl]-5-methyl-3-pyridyl]-3-(7-isopropylpyrazolo[1,5-a]pyrimidin-6-yl)urea] | ≤ 0.2 | 500 to 1000
Cc1cc(NC(=O)Nc2cnc3ccnn3c2C(C)C)cnc1-c1noc(CCCCCCN2CCN(c3ccc4c(c3)CN(C3CCC(=O)NC3=O)C4=O)CC2)n1 (stereo not shown) [Compound 92, 1-[6-[5-[6-[4-[2-(2,6-dioxo-3-piperidyl)-1-oxo-isoindolin-5-yl]piperazin-1-yl]hexyl]-1,2,4-oxadiazol-3-yl]-5-methyl-3-pyridyl]-3-(7-isopropylpyrazolo[1,5-a]pyrimidin-6-yl)urea] | ≤ 0.2 | < 500
CC(C)c1c(NC(=O)Nc2cnc(-c3noc(CCCCCCN4CCN(c5ccc6c(c5)CN(C5CCC(=O)NC5=O)C6=O)CC4)n3)c(Cl)c2)cnc2ccnn12 (stereo not shown) [Compound 93, 1-[5-chloro-6-[5-[6-[4-[2-(2,6-dioxo-3-piperidyl)-1-oxo-isoindolin-5-yl]piperazin-1-yl]hexyl]-1,2,4-oxadiazol-3-yl]-3-pyridyl]-3-(7-isopropylpyrazolo[1,5-a]pyrimidin-6-yl)urea] | ≤ 0.2 | < 500
O=C1CCC(N2Cc3cc(N4CCN(C(=O)CCCCc5nc(-c6ncc(NC(=O)Nc7cnc8ccnn8c7C7CCCC7)cc6C(F)(F)F)no5)CC4)ccc3C2=O)C(=O)N1 (stereo not shown) [Compound 96, 1-(7-cyclopentylpyrazolo[1,5-a]pyrimidin-6-yl)-3-[6-[5-[5-[4-[2-(2,6-dioxo-3-piperidyl)-1-oxo-isoindolin-5-yl]piperazin-1-yl]-5-oxo-pentyl]-1,2,4-oxadiazol-3-yl]-5-(trifluoromethyl)-3-pyridyl]urea] | ≤ 0.2 | < 500
O=C1CCC(N2Cc3cc(N4CCN(C(=O)CCCCCc5nc(-c6ncc(NC(=O)Nc7cnc8ccnn8c7C7CCCC7)cc6C(F)(F)F)no5)CC4)ccc3C2=O)C(=O)N1 (stereo not shown) [Compound 104, 1-(7-cyclopentylpyrazolo[1,5-a]pyrimidin-6-yl)-3-[6-[5-[6-[4-[2-(2,6-dioxo-3-piperidyl)-1-oxo-isoindolin-5-yl]piperazin-1-yl]-6-oxo-hexyl]-1,2,4-oxadiazol-3-yl]-5-(trifluoromethyl)-3-pyridyl]urea] | ≤ 0.2 | < 500
